Measurements as given in PubChem BioAssay AID1259407 (Chemical Carcinogenesis Research Information System (CCRIS), 2018).
Activity calls are given as the source filed them. The rule behind the calls is not given here.

Test system: CCRIS mutagenicity, Ames/micronucleus/aberration tests
Assay: CCRIS mutagenicity studies
[1] = Test System: AMES SALMONELLA TYPHIMURIUM, Strain/Indicator: TA98, Metabolic Activation: NONE, Method: PREINCUBATION
[2] = Test System: AMES SALMONELLA TYPHIMURIUM, Strain/Indicator: TA100, Metabolic Activation: NONE, Method: PREINCUBATION
[3] = Test System: AMES SALMONELLA TYPHIMURIUM, Strain/Indicator: TA1535, Metabolic Activation: NONE, Method: PREINCUBATION
[4] = Test System: AMES SALMONELLA TYPHIMURIUM, Strain/Indicator: TA1537, Metabolic Activation: NONE, Method: PREINCUBATION
[5] = Test System: AMES SALMONELLA TYPHIMURIUM, Strain/Indicator: TA98, Metabolic Activation: NONE, Method: STANDARD PLATE
[6] = Test System: AMES SALMONELLA TYPHIMURIUM, Strain/Indicator: TA100, Metabolic Activation: NONE, Method: STANDARD PLATE
[7] = Test System: AMES SALMONELLA TYPHIMURIUM, Strain/Indicator: TA1538, Metabolic Activation: NONE, Method: STANDARD PLATE
[8] = Test System: AMES SALMONELLA TYPHIMURIUM, Strain/Indicator: TA1538, Metabolic Activation: RAT, LIVER, S-9, AROCLOR 1254, Method: STANDARD PLATE

`COCCOCCOC` was tested, and the mutagenic call (Test System: AMES SALMONELLA TYPHIMURIUM, Strain/Indicator: TA98, Metabolic Activation: HAMSTER, LIVER, S-9, AROCLOR 1254 (10%), Method: PREINCUBATION) was “inactive; negative”, the mutagenic call [1] was “inactive; negative” and the mutagenic call (Test System: AMES SALMONELLA TYPHIMURIUM, Strain/Indicator: TA98, Metabolic Activation: RAT, LIVER, S-9, AROCLOR 1254 (10%), Method: PREINCUBATION) was “inactive; negative”. For the same compound, the mutagenic call (Test System: AMES SALMONELLA TYPHIMURIUM, Strain/Indicator: TA100, Metabolic Activation: HAMSTER, LIVER, S-9, AROCLOR 1254 (10%), Method: PREINCUBATION) was “inactive; negative”, the mutagenic call [2] was “inactive; negative” and the mutagenic call (Test System: AMES SALMONELLA TYPHIMURIUM, Strain/Indicator: TA100, Metabolic Activation: RAT, LIVER, S-9, AROCLOR 1254 (10%), Method: PREINCUBATION) was “inactive; negative”. The mutagenic call (Test System: AMES SALMONELLA TYPHIMURIUM, Strain/Indicator: TA1535, Metabolic Activation: HAMSTER, LIVER, S-9, AROCLOR 1254 (10%), Method: PREINCUBATION) was “inactive; negative”, the mutagenic call [3] was “inactive; negative” and the mutagenic call (Test System: AMES SALMONELLA TYPHIMURIUM, Strain/Indicator: TA1535, Metabolic Activation: RAT, LIVER, S-9, AROCLOR 1254 (10%), Method: PREINCUBATION) was “inactive; negative”. For the same compound, the mutagenic call (Test System: AMES SALMONELLA TYPHIMURIUM, Strain/Indicator: TA1537, Metabolic Activation: HAMSTER, LIVER, S-9, AROCLOR 1254 (10%), Method: PREINCUBATION) was “inactive; negative”, the mutagenic call [4] was “inactive; negative” and the mutagenic call (Test System: AMES SALMONELLA TYPHIMURIUM, Strain/Indicator: TA1537, Metabolic Activation: RAT, LIVER, S-9, AROCLOR 1254 (10%), Method: PREINCUBATION) was “inactive; negative”.

In the case of `CCc1cc(-c2ccccc2)cc(CC)c1N`, the mutagenic call [5] is reported as “inactive; negative”, the mutagenic call (Test System: AMES SALMONELLA TYPHIMURIUM, Strain/Indicator: TA98, Metabolic Activation: RAT LIVER S-9, AROCLOR, Method: STANDARD PLATE) is reported as “inactive; negative” and the mutagenic call [6] is reported as “inactive; negative”. For the same compound, the mutagenic call (Test System: AMES SALMONELLA TYPHIMURIUM, Strain/Indicator: TA100, Metabolic Activation: RAT LIVER S-9, AROCLOR, Method: STANDARD PLATE) was “inactive; negative”.

With `C/C=C\c1cc(OC)c(OC)cc1OC` the mutagenic call (Test System: AMES SALMONELLA TYPHIMURIUM, Strain/Indicator: TA97, Metabolic Activation: NONE, Method: STANDARD PLATE) was “inactive; negative”, the mutagenic call (Test System: AMES SALMONELLA TYPHIMURIUM, Strain/Indicator: TA97, Metabolic Activation: RAT, LIVER, S-9, AROCLOR 1254, Method: STANDARD PLATE) was “inactive; negative” and the mutagenic call [5] was “inactive; negative”. The mutagenic call (Test System: AMES SALMONELLA TYPHIMURIUM, Strain/Indicator: TA98, Metabolic Activation: RAT, LIVER, S-9, AROCLOR 1254, Method: STANDARD PLATE) was “inactive; negative”, the mutagenic call [6] was “inactive; negative” and the mutagenic call (Test System: AMES SALMONELLA TYPHIMURIUM, Strain/Indicator: TA100, Metabolic Activation: RAT, LIVER, S-9, AROCLOR 1254, Method: STANDARD PLATE) was “inactive; negative”. The mutagenic call (Test System: AMES SALMONELLA TYPHIMURIUM, Strain/Indicator: TA1535, Metabolic Activation: NONE, Method: STANDARD PLATE) was “active; positive”, the mutagenic call (Test System: AMES SALMONELLA TYPHIMURIUM, Strain/Indicator: TA1535, Metabolic Activation: RAT, LIVER, S-9, AROCLOR 1254, Method: STANDARD PLATE) was “inactive; negative” and the mutagenic call (Test System: AMES SALMONELLA TYPHIMURIUM, Strain/Indicator: TA1537, Metabolic Activation: NONE, Method: STANDARD PLATE) was “inactive; negative”. The mutagenic call (Test System: AMES SALMONELLA TYPHIMURIUM, Strain/Indicator: TA1537, Metabolic Activation: RAT, LIVER, S-9, AROCLOR 1254, Method: STANDARD PLATE) was “inactive; negative”, the mutagenic call [7] was “inactive; negative” and the mutagenic call [8] was “inactive; negative”. The mutagenic call (Test System: UDS RAT HEPATOCYTES, Strain/Indicator: THY INCORP, Metabolic Activation: NONE, Method: LIQUID SCINTILLATION COUNTING) was “active; positive”.

For `COC(=O)[C@H]1[C@H]2C[C@@H]3c4[nH]c5cc(OC)ccc5c4CCN3C[C@H]2C[C@@H](OC(=O)/C=C/c2cc(OC)c(OC)c(OC)c2)[C@@H]1OC`, the mutagenic call (Test System: AMES SALMONELLA TYPHIMURIUM, Strain/Indicator: TA97, Metabolic Activation: HAMSTER, LIVER, S-9, AROCLOR 1254 (10 OR 30%), Method: PREINCUBATION) was “inactive; negative”, the mutagenic call (Test System: AMES SALMONELLA TYPHIMURIUM, Strain/Indicator: TA97, Metabolic Activation: NONE, Method: PREINCUBATION) was “inactive; negative” and the mutagenic call (Test System: AMES SALMONELLA TYPHIMURIUM, Strain/Indicator: TA97, Metabolic Activation: RAT, LIVER, S-9, AROCLOR 1254 (10 OR 30%), Method: PREINCUBATION) was “inactive; negative”. For the same compound, the mutagenic call (Test System: AMES SALMONELLA TYPHIMURIUM, Strain/Indicator: TA98, Metabolic Activation: HAMSTER, LIVER, S-9, AROCLOR 1254 (10 OR 30%), Method: PREINCUBATION) was “inactive; negative”, the mutagenic call [1] was “inactive; negative” and the mutagenic call (Test System: AMES SALMONELLA TYPHIMURIUM, Strain/Indicator: TA98, Metabolic Activation: RAT, LIVER, S-9, AROCLOR 1254 (10 OR 30%), Method: PREINCUBATION) was “inactive; negative”. For the same compound, the mutagenic call (Test System: AMES SALMONELLA TYPHIMURIUM, Strain/Indicator: TA100, Metabolic Activation: HAMSTER, LIVER, S-9, AROCLOR 1254 (10 OR 30%), Method: PREINCUBATION) was “inactive; negative”, the mutagenic call [2] was “inactive; negative” and the mutagenic call (Test System: AMES SALMONELLA TYPHIMURIUM, Strain/Indicator: TA100, Metabolic Activation: RAT, LIVER, S-9, AROCLOR 1254 (10 OR 30%), Method: PREINCUBATION) was “inactive; negative”. For the same compound, the mutagenic call (Test System: AMES SALMONELLA TYPHIMURIUM, Strain/Indicator: TA1535, Metabolic Activation: HAMSTER, LIVER, S-9, AROCLOR 1254 (10 OR 30%), Method: PREINCUBATION) was “inactive; negative”, the mutagenic call [3] was “inactive; negative” and the mutagenic call (Test System: AMES SALMONELLA TYPHIMURIUM, Strain/Indicator: TA1535, Metabolic Activation: RAT, LIVER, S-9, AROCLOR 1254 (10 OR 30%), Method: PREINCUBATION) was “inactive; negative”. For the same compound, the mutagenic call (Test System: AMES SALMONELLA TYPHIMURIUM, Strain/Indicator: TA1537, Metabolic Activation: HAMSTER, LIVER, S-9, AROCLOR 1254 (30%), Method: PREINCUBATION) was “inactive; negative”, the mutagenic call [4] was “inactive; negative” and the mutagenic call (Test System: AMES SALMONELLA TYPHIMURIUM, Strain/Indicator: TA1537, Metabolic Activation: RAT, LIVER, S-9, AROCLOR 1254 (30%), Method: PREINCUBATION) was “inactive; negative”.

`Cc1c2ccccc2c(CBr)c2ccccc12` was tested, and the mutagenic call [5] was “active; positive” and the mutagenic call [6] was “inactive; negative”.

For `c1ccc2c(c1)ccc1nc3c4c(c5ccccc5c3cc12)O4`, the mutagenic call (Test System: AMES SALMONELLA TYPHIMURIUM, Strain/Indicator: TA100, Metabolic Activation: GUINEA PIG, LIVER, S-9, 3-METHYLCHOLANTHRENE, Method: STANDARD PLATE) was “active; positive”.

With `CC(=O)Nc1ccc(Oc2ccc(Cl)cc2Cl)cc1` the mutagenic call [6] was “inactive; negative” and the mutagenic call (Test System: AMES SALMONELLA TYPHIMURIUM, Strain/Indicator: TA100, Metabolic Activation: RAT, LIVER, S-9, KANECLOR 500, Method: STANDARD PLATE) was “active; positive”.

With `COC(=O)[C@H](C)CN=[N+]=[N-]` the mutagenic call (Test System: AMES SALMONELLA TYPHIMURIUM, Strain/Indicator: TA100, Metabolic Activation: RAT, LIVER, S-9, PCB, Method: PREINCUBATION) was “active; positive”.

With `C[C@]12CC[C@@H]3c4ccc(OC(=O)c5ccccc5)cc4CC[C@H]3[C@@H]1CC[C@@H]2O` the mutagenic call (End Point: IN VIVO MICRONUCLEUS, Test System: BONE MARROW POLYCHROMATIC ERYTHROCYTES, Species: RAT, Strain/Sex: ALDERLEY PARK (AP)/FEMALE, Route: SUBCUTANEOUS (TEST MATERIAL SOLVENT: OIL)) was “inactive; negative”.

With `[C-]#[O+].[C-]#[O+].[Ni].c1ccc([PH+](c2ccccc2)c2ccccc2)cc1.c1ccc([PH+](c2ccccc2)c2ccccc2)cc1` the mutagenic call (Test System: Ames Salmonella typhimurium, Strain/Indicator: TA100, Metabolic Activation: None, Method: Preincubation) was “inactive; negative”, the mutagenic call (Test System: Ames Salmonella typhimurium, Strain/Indicator: TA100, Metabolic Activation: Rat, Liver, S-9, Phenobarbital and 5,6-benzoflavone, Method: Preincubation) was “inactive; negative” and the mutagenic call (Test System: Ames Salmonella typhimurium, Strain/Indicator: TA102, Metabolic Activation: None, Method: Preincubation) was “inactive; negative”. The mutagenic call (Test System: Ames Salmonella typhimurium, Strain/Indicator: TA102, Metabolic Activation: Rat, Liver, S-9, Phenobarbital and 5,6-benzoflavone, Method: Preincubation) was “inactive; negative”.

`CCN(CC)c1ccc2c(C(F)(F)F)cc(=O)oc2c1` was tested, and the mutagenic call [7] was “inactive; negative” and the mutagenic call [8] was “inactive; negative”.
